Source: ChEMBL document CHEMBL4339188, “Tackling neuroinflammation and cholinergic deficit in Alzheimer's disease: Multi-target inhibitors of cholinesterases, cyclooxygenase-2 and 15-lipoxygenase” (Eur J Med Chem, 2019)

Legend:
Cholinesterase = Cholinesterase (Homo sapiens, UniProt P06276); experiment: Inhibition of human serum BChE using butyrylthiocholine iodide as substrate pre-incubated for 20 mins before substrate addition and measured for 180 secs by spectrophotometry based Ellman's method
Acetylcholinesterase [1] = molecular target: Acetylcholinesterase (Homo sapiens, UniProt P22303); experiment: Inhibition of recombinant human AChE using acetylthiocholine iodide as substrate pre-incubated for 20 mins before substrate addition and measured for 180 secs by spectrophotometry based Ellman's method
Acetylcholinesterase [2] = molecular target: Acetylcholinesterase (Electrophorus electricus, UniProt O42275); experiment: Inhibition of electric eel AChE using acetylthiocholine iodide as substrate incubated for 10 mins by spectrophotometry based Ellman's method
HepG2 = experiment: cells; details: Homo sapiens, HepG2, 72 h
Description: Cytotoxicity against human HepG2 cell assessed as reduction in cell viability incubated for 72 hrs by MTT assay

in vitro [3] = details: human, HepG2 cells
Description: Cytotoxicity against human HepG2 cell assessed as safe dose that maintains 100% cell viability incubated for 72 hrs by MTT assay

in vitro [4] = details: mouse, mouse neuronal cells
Description: Toxicity in mouse neuronal cells assessed as reduction in cell viability incubated for 72 hrs by MTT assay

in vitro [5] = details: mouse, mouse neuronal cells; remark: listed apart in the source
Description: Toxicity in mouse neuronal cells assessed as safe dose that maintains 100% cell viability incubated for 72 hrs by MTT assay

[6] = molecular target: T1, Prostaglandin G/H synthase 1 (Ovis aries, UniProt P05979); experiment: Inhibition of ovine COX -1 by colorimetric inhibitor screening assay kit method
T1 sequence (P05979 whole entry): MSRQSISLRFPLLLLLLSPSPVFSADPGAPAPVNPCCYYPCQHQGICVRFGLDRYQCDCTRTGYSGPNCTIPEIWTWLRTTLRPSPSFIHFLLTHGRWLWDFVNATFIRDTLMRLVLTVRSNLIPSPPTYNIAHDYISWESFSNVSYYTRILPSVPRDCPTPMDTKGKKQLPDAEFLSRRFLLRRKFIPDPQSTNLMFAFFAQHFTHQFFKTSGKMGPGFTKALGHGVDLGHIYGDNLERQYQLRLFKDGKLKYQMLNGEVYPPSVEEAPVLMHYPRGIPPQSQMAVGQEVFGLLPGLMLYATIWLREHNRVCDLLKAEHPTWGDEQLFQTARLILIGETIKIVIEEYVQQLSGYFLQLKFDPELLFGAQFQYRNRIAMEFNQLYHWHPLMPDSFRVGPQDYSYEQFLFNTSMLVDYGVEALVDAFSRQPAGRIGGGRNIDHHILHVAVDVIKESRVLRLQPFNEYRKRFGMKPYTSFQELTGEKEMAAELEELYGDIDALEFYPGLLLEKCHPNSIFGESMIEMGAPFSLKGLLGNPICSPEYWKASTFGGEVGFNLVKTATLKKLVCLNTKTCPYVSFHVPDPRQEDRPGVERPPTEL

PC-12 [7] = experiment: Anti-inflammatory activity in lipopolysaccharide challenged rat PC12 cells assessed as decrease in TNFalpha production at 100 uM pre-incubated for 24 hrs before LPS challenge for 48 hrs by immunoblot analysis; assay type: functional
PC-12 [8] = experiment: Anti-inflammatory activity in lipopolysaccharide challenged rat PC12 cells assessed as decrease in interleukin-1 beta production at 100 uM pre-incubated for 24 hrs before LPS challenge for 48 hrs by immunoblot analysis; assay type: functional
PC-12 [9] = experiment: Cytotoxicity against rat PC12 cells assessed as reduction in cell viability up to 300 uM by MTS assay; assay type: cell-based
[10] = Safety index, ratio of EC100 for test compound to EC100 for tacrine for cytotoxicity against human HepG2 cell assessed as safe dose that maintains 100% cell viability incubated for 72 hrs by MTT assay; assay type: cell-based; details: HepG2 cells
in vitro [11] = details: PAMPA, pH 7.4

Acetylcholinesterase (Homo sapiens, UniProt P22303), sequence (P22303 whole entry): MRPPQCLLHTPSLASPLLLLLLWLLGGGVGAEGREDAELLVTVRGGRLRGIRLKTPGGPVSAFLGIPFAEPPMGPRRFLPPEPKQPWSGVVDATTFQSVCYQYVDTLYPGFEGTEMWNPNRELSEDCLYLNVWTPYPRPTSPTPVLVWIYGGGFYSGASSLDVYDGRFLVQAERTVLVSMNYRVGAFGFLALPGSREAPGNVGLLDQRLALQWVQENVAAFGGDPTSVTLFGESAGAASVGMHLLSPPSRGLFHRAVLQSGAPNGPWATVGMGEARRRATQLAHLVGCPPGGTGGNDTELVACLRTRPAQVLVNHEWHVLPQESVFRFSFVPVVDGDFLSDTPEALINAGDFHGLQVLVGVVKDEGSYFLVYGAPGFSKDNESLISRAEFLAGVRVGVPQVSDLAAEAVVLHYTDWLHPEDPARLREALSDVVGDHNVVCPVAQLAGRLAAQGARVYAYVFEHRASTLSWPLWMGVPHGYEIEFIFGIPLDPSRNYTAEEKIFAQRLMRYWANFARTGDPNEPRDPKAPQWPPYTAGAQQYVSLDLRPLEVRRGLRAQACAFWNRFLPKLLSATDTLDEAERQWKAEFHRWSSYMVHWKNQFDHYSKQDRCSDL
Cholinesterase, sequence (P06276 whole entry): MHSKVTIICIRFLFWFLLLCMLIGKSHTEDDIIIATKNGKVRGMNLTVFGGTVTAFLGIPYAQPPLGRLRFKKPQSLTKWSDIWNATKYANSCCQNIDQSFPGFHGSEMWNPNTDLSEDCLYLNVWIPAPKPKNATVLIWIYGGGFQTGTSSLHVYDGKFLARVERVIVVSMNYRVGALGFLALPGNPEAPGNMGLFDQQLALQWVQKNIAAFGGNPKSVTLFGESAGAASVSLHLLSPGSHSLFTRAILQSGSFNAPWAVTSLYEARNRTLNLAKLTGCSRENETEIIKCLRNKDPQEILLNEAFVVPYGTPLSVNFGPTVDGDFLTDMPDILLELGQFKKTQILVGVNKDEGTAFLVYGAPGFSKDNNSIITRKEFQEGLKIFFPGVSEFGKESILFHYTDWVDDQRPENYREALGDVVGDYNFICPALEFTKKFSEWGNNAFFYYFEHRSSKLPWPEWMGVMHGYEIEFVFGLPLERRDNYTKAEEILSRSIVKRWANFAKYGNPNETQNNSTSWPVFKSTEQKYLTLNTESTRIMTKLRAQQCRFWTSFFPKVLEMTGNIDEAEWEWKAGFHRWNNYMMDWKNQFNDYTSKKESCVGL
Acetylcholinesterase (Electrophorus electricus, UniProt O42275), sequence (O42275 whole entry): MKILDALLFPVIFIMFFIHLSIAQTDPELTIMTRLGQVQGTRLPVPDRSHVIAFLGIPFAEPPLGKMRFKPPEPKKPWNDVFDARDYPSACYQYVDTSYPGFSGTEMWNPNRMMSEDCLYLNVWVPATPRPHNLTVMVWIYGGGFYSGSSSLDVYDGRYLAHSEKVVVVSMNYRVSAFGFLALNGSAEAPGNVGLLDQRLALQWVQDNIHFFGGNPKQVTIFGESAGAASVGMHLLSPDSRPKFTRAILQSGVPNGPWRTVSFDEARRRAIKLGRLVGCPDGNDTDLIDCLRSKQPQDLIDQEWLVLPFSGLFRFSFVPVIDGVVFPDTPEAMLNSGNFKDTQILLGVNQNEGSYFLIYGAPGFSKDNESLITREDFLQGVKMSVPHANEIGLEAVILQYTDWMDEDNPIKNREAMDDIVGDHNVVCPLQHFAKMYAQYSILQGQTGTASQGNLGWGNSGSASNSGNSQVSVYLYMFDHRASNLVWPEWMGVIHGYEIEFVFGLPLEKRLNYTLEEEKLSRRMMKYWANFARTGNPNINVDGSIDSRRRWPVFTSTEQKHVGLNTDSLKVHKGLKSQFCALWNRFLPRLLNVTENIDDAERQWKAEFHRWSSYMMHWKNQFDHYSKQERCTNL

SMILES | IC50 (Cholinesterase) [µM] | IC50 (Acetylcholinesterase [1]) [µM] | IC50 (Acetylcholinesterase [2]) [µM] | IC50 (HepG2) [µM] | MNTC at 72 h (in vitro [3]) [µM] | IC50 at 72 h (in vitro [4]) [µM] | MNTC at 72 h (in vitro [5]) [nM] | IC50 [6] [µM] | inhibition at 100 µM (PC-12 [7]) [%] | inhibition at 100 µM (PC-12 [8]) [%] | Activity (PC-12 [9]) | selectivity ratio at 72 h [10] | Papp at 6 h, 50 µM (in vitro [11]) [×10⁻⁶ cm/s]
S=C(NNc1c2c(nc3ccccc13)CCCC2)Nc1ccc(Cl)cc1 | 0.328 | 0.786 | 3.83 | 21.9 | 1.97 | 7.1 | 2400 |  |  |  |  |  | 
S=C(NNc1c2c(nc3ccccc13)CCCC2)Nc1ccc(Br)cc1 | 0.426 | 0.571 | 0.861 | 69.5 | 2.96 | 19.7 | 788 |  |  |  |  |  | 
O=[N+]([O-])c1ccc(-n2cc(COc3ccc(/C=N/Nc4c5c(nc6ccccc46)CCCC5)cc3)nn2)cc1 | 0.0256 | 1.05 | 0.535 | 53.6 | 7.7 | 2.95 | 830 |  |  |  |  |  | 
Cl.Clc1ccc(-n2cc(COc3ccc(/C=N/Nc4c5c(nc6ccccc46)CCCC5)cc3)nn2)cc1 | 0.0678 | 7.03 | 4.38 | 178 | 70 | 8.28 | 3580 | 13.4 | > 60 | > 90 | Non-Toxic | 72 | 6.07
NS(=O)(=O)c1ccc(-n2cc(COc3ccc(/C=N/Nc4c5c(nc6ccccc46)CCCC5)cc3)nn2)cc1 | 0.0389 | 1.11 | 0.807 | 25.7 | 1.04 | 16.4 | 1580 |  |  |  |  |  | 
C(=N\Nc1c2c(nc3ccccc13)CCCC2)/c1ccc(OCc2cn(-c3ccccc3)nn2)cc1 | 0.054 | 0.9 | 0.917 | 28.4 | 3.1 | 34.5 | 1950 |  |  |  |  |  | 
O=[N+]([O-])c1cccc(-n2cc(COc3ccc(/C=N/Nc4c5c(nc6ccccc46)CCCC5)cc3)nn2)c1 | 0.0482 | 1.46 | 0.066 | 50.1 | 4.18 | 28 | 976 |  |  |  |  |  | 
NS(=O)(=O)c1ccc(NC(=S)NNc2c3c(nc4ccccc24)CCCC3)cc1 | 0.307 | 0.961 | 0.792 | 42.3 | 1.19 | 3.25 | 295 |  |  |  |  |  | 
C(=N\Nc1c2c(nc3ccccc13)CCCC2)/c1ccc(OCc2cn(Cc3ccccc3)nn2)cc1 | 0.0361 | 1.05 | 0.547 | 33.4 | 1.2 | 5.71 | 2670 |  |  |  |  |  | 
COc1ccc(NC(=S)NNc2c3c(nc4ccccc24)CCCC3)cc1 | 0.568 | 0.293 | 0.91 | 70.7 | 3.33 | 4.33 | 1380 |  |  |  |  |  | 
Brc1ccc(-n2cc(COc3ccc(/C=N/Nc4c5c(nc6ccccc46)CCCC5)cc3)nn2)cc1.Cl | 0.0926 | 12.8 | 18.1 | 96.7 | 47.9 | 18.6 | 1000 | 13.9 |  |  | 30% |  | 6.26
C#CCOc1ccc(/C=N/Nc2c3c(nc4ccccc24)CCCC3)cc1 | 0.11 | 2.73 | 0.438 | 46.1 | 2.73 | 8.79 | 4810 |  |  |  |  |  | 
COc1ccc(-n2cc(COc3ccc(/C=N/Nc4c5c(nc6ccccc46)CCCC5)cc3)nn2)cc1.Cl | 0.0682 | 2.3 | 2.07 | 65.1 | 27.2 | 3.98 | 1450 | 12.2 | > 60 | > 90 | 30% | 27 | 6.35
C=CCNC(=S)NNc1c2c(nc3ccccc13)CCCC2 | 0.722 | 5.77 | 1.35 | 80 | 0.63 | 6.83 | 2770 |  |  |  |  |  | 
Cl.O=C(O)c1ccc(-n2cc(COc3ccc(/C=N/Nc4c5c(nc6ccccc46)CCCC5)cc3)nn2)cc1 | 0.304 | 4.03 | 1.32 | 97.9 | 43.1 | 3.71 | 162 |  |  |  |  | 43 | 1.77
S=C(NNc1c2c(nc3ccccc13)CCCC2)Nc1ccccc1 | 0.748 | 0.61 | 1.85 | 82.9 | 6.78 | 10.9 | 395 |  |  |  |  |  | 
Cc1ccc(-n2cc(COc3ccc(/C=N/Nc4c5c(nc6ccccc46)CCCC5)cc3)nn2)cc1.Cl | 0.0757 | 3.75 | 20.2 | 262 | 113 | 5.85 | 2580 | 10.9 | > 60 | > 90 | Non-Toxic | 116 | 5.5
NS(=O)(=O)c1cc2c(cc1Cl)N=CNS2(=O)=O [CHLOROTHIAZIDE] |  |  |  |  |  |  |  |  |  |  |  |  | 0.66
CNC(=C[N+](=O)[O-])NCCSCc1ccc(CN(C)C)o1 [RANITIDINE] |  |  |  |  |  |  |  |  |  |  |  |  | 0.04
